Columns and labels:
[1] = Co-optima fuel property database, cited from earlier work; for Water Solubility: measured at 25° C.
[2] = ASTM D3703 test for hydroperoxides (peroxide number); format: physicochemical; settings: silica column processed sample; testing range 0-50 mg/kg
Method: Potential polar contaminants, such as peroxides and hydrates, were removed from the neat prenol sample using a silica column following the protocol outlined by Mueller et al. (see, e.g., Mueller C J et al., “Diesel surrogate fuels for engine testing and chemical-kinetic modeling: compositions and properties,” Energy Fuels 2016; 30:1445-61). RON testing of this sample was conducted to confirm that these contaminants were not affecting the RON measurement. The sample containers were stored at 85% capacity and sealed with parafilm to limit peroxide formation after the silica column treatment; testing was performed within 10 days of the treatment. The peroxide number of the silica column treated sample (sample processed as described above) was tested by the ASTM […] method at SwRI. This method quantified the concentration hydroperoxides in a sample within the range of 0-50 mg/kg (ppm).

Molecule	DH Vap [1]	Energy Density [1]	Water Solubility [1]	hydroperoxides (ASTM D3703) [2]
O=C1CCCC1 [Cyclopentanone]	504 kJ/kg	30.2 mJ/L	61 mg/mL	
n-propanol	789 kJ/kg	24.7 mJ/L		
CCO [Ethanol]	919 kJ/kg	20.2 mJ/L		
CC(C)O [Isopropanol]	744 kJ/kg	24.1 mJ/L		
CC(C)CO [Isobutanol]	685 kJ/kg	26.6 mJ/L		
CC(C)=CCO [Prenol, 3-methyl-2-buten-1-ol]	512 kJ/kg		41 mg/mL	non-detect

From patent publication US10899988B1, “Octane hyperboosting in fuel blends” (National Technology & Engineering Solutions of Sandia, LLC, priority 2018, dated 2021)
